Like-named read-outs stand apart in the source and are kept apart here.
Assays:
[1] = molecular target: recombinant SARS-CoV-2 Main protease (Mpro) (Severe acute respiratory syndrome coronavirus 2 (2019-nCoV) (SARS-CoV-2), UniProt P0DTD1); test: Cov Mpro Biochemical IC50 Assay; details: read-out: MPro IC50
SARS-CoV-2-NLuc = test: microbe, parasite or virus in culture; assay type: cell-based, SARS Coronavirus 2
[2] = recombinant SARS-CoV-2 Mpro 7.5 nM, fluorogenic peptide substrate 40 μM
[3] = Severe acute respiratory syndrome coronavirus, 48 h; read-out: MPro EC50
[4] = Severe acute respiratory syndrome coronavirus, 48 h, read-out: MPro EC50
[5] = recombinant SARS-CoV-2 Mpro, fluorogenic peptide substrate

| SMILES | IC50 [1, 2] [nM] | EC50 (SARS-CoV-2-NLuc; [3]) [nM] | EC50 (SARS-CoV-2-NLuc; [4]) [nM] | EC50 (SARS-CoV-2-NLuc; read-out: MPro EC50) [nM] | IC50 [1, 5] [nM] |
| --- | --- | --- | --- | --- | --- |
| COc1cc(-c2cc3c(s2)c(=O)n(-c2cncc4ccccc24)c(=O)n3C)c(Cl)cc1F [Example 993, 6-(2-chloro-4-fluoro-5-methoxy-phenyl)-3-(4-isoquinolyl)-1-methyl-thieno[3,2-d]pyrimidine-2,4-dione] | 5.63 | 4.38 |  |  |  |
| COc1cnc(Cl)c(-c2cc3c(s2)c(=O)n(-c2cncc4ccccc24)c(=O)n3CC2(C#N)CC2)c1 [Example 759] | 5.39 |  | 4.85 |  |  |
| COc1ccc(C#N)c(-c2cc3[nH]c(=O)n(-c4cncc5cccnc45)c(=O)c3s2)c1 [Example 460, 2-(3-(1,6-naphthyridin-8-yl)-2,4-dioxo-1,2,3,4-tetrahydrothieno[3,2-d]pyrimidin-6-yl)-4-methoxybenzonitrile] | 9.01 |  | 60.7 |  |  |
| COc1cc(-c2cc3c(s2)c(=O)n(-c2cncc4ccccc24)c(=O)n3CC#N)c(Cl)cc1F (single isomer, unassigned) [Example 633, 2-[6-(2-chloro-4-fluoro-5-methoxy-phenyl)-3-(4-isoquinolyl)-2,4-dioxo-thieno[3,2-d]pyrimidin-1-yl]acetonitrile] | 3.22 |  |  | 3.29 |  |
| COc1ccc(Cl)c(-c2cc3[nH]c(=O)n(-c4cncc5cccnc45)c(=O)c3s2)c1 [Example 456, 6-(2-chloro-5-methoxyphenyl)-3-(1,6-naphthyridin-8-yl)thieno[3,2-d]pyrimidine-2,4(1H,3H)-dione] | 3.59 |  | 6.79 |  |  |
| Cn1cc2ccc(-c3cccc(Cl)c3-c3ccc4c(=O)n(-c5cncc6ccccc56)c(=O)[nH]c4c3)cc2n1 [Example 248] |  |  | 40.1 |  | 87.2 |
| Cc1cccc(C#N)c1-c1cc2c(s1)c(=O)n(-c1cncc3cnn(C)c13)c(=O)n2CCC#N [Example 783] | 199 |  | 455 |  |  |
| COc1cc(Cl)c(-c2cc3[nH]c(=O)n(-c4cncc5ccccc45)c(=O)c3s2)cc1Cl [Example 724] | 9.42 |  | 17.1 |  |  |
| Cc1c(C#N)cncc1-c1cccc(Cl)c1-c1ccc2c(=O)n(-c3cncc4ccccc34)c(=O)[nH]c2c1 [Example 205] |  |  | 41.2 |  | 44 |
| COc1cc(-c2cc3[nH]c(=O)n(-c4cncc5ccc(F)cc45)c(=O)c3s2)c(Cl)cc1F [Example 763] | 10.2 |  | 13.4 |  |  |
| COc1cc(-c2ccc3c(=O)n(-c4cncc5ccccc45)c(=O)[nH]c3c2)c(Cl)cn1 [Example 253] |  |  | 1210 |  | 459 |
| N#Cc1cc(F)ccc1-c1cc2[nH]c(=O)n(-c3cncc4ccccc34)c(=O)c2s1 [Example 534] | 30.6 |  | 80.5 |  |  |
| COc1cc(-c2cc3[nH]c(=O)n(-c4c(C)ccnc4F)c(=O)c3s2)c(Cl)cc1F [Example 738] | 13.4 | 26.2 |  |  |  |
| O=c1[nH]c2cc(-c3ccccc3Cl)cc(F)c2c(=O)n1-c1cncc2ccccc12 [Example 222] |  |  | 151 |  | 153 |
| COc1ccc(C#N)c(-c2ccc3c(=O)n(-c4cncc5ccccc45)c(=O)[nH]c3c2)c1 (single isomer, unassigned) [Example 570, 2-[3-(4-isoquinolyl)-2,4-dioxo-1H-quinazolin-7-yl]-4-methoxy-benzonitrile] | 1310 |  |  | 700 |  |
| COc1cc(-c2cc3c(s2)c(=O)n(-c2cncc4cn[nH]c24)c(=O)n3CCC#N)c(Cl)cc1F [Example 1047] | 5.53 |  | 12.4 |  |  |
| Cn1nnc2cncc(-n3c(=O)c4sc(-c5ccc(F)cc5Cl)cc4n(CCC#N)c3=O)c21 (single isomer, unassigned) [Example 1029, 3-[6-(2-chloro-4-fluoro-phenyl)-3-(1-methyltriazolo[4,5-c]pyridin-7-yl)-2,4-dioxo-thieno[3,2-d]pyrimidin-1-yl]propanenitrile] | 582 |  |  | > 1000 |  |
| COc1cnc(C#N)c(-c2ccc3c(=O)n(-c4cncc5ccccc45)c(=O)[nH]c3c2)c1 [Example 333] |  |  | 765 |  | 149 |
| Cn1nnc2cncc(-n3c(=O)c4sc(-c5ccccc5C#N)cc4n(CCC#N)c3=O)c21 [Example 877] | 54.1 |  | 216 |  |  |

| SMILES | IC50 [1, 2] [nM] | EC50 (SARS-CoV-2-NLuc; [3]) [nM] | EC50 (SARS-CoV-2-NLuc; [4]) [nM] | EC50 (SARS-CoV-2-NLuc; read-out: MPro EC50) [nM] | IC50 [1, 5] [nM] |
| --- | --- | --- | --- | --- | --- |
| COc1cc(-c2cc3c(s2)c(=O)n(-c2cncc4ccncc24)c(=O)n3CCC#N)c(Cl)cc1F [Example 923, 3-[6-(2-chloro-4-fluoro-5-methoxy-phenyl)-3-(2,6-naphthyridin-4-yl)-2,4-dioxo-thieno[3,2-d]pyrimidin-1-yl]propanenitrile] | 4.3 |  | 2 |  |  |
| CS(=O)(=O)N1CCN(c2ccc3cncc(-n4c(=O)[nH]c5cc(-c6ccccc6Cl)sc5c4=O)c3c2)CC1 [Example 421] | 4.42 |  | 38.8 |  |  |
| COc1cc(-c2cc3c(s2)c(=O)n(-c2cncc4nn(C)c(C)c24)c(=O)n3CCC#N)c(Cl)cc1F (single isomer, unassigned) [Example 1042, 3-(6-(2-chloro-4-fluoro-5-methoxyphenyl)-3-(2,3-dimethyl-2H-pyrazolo[3,4-c]pyridin-4-yl)-2,4-dioxo-3,4-dihydrothieno[3,2-d]pyrimidin-1(2H)-yl)propanenitrile] | > 1000 |  |  | > 1000 |  |
| O=c1[nH]c2cc(-c3ccccc3Cl)ccc2c(=O)n1-c1cncc2ccccc12 [Example 73, 7-(2-chlorophenyl)-3-(isoquinolin-4-yl)quinazoline-2,4(1H,3H)-dione] |  |  | 262 |  | 159 |
| Cc1ccc(-c2cc3[nH]c(=O)n(-c4cncc5cnn(C)c45)c(=O)c3s2)c(C#N)c1 [Example 841] | 134 |  | 523 |  |  |
| Cc1c(-c2cccc(Cl)c2-c2ccc3c(=O)n(-c4cncc5ccccc45)c(=O)[nH]c3c2)cnn1C1CCNCC1 [Example 473] | 17.5 |  | 1810 |  |  |
| COc1cc(-c2cc3[nH]c(=O)n(-c4cncc5ccn(C)c45)c(=O)c3s2)c(Cl)cc1F (single isomer, unassigned) [Example 958, 6-(2-chloro-4-fluoro-5-methoxyphenyl)-3-(1-methyl-1H-pyrrolo[3,2-c]pyridin-7-yl)thieno[3,2-d]pyrimidine-2,4(1H,3H)-dione] | 11.2 |  |  | 13.3 |  |
| CC(C)c1ccccc1-c1ccc2c(=O)n(-c3cncc4ccccc34)c(=O)[nH]c2c1 [Example 52] |  |  | 3720 |  | 12800 |
| COc1cc(-c2cc3[nH]c(=O)n(-c4cncc5ccc(C)nc45)c(=O)c3s2)c(Cl)cc1F (single isomer, unassigned) [Example 1034, 6-(2-chloro-4-fluoro-5-methoxyphenyl)-3-(2-methyl-1,6-naphthyridin-8-yl)thieno[3,2-d]pyrimidine-2,4(1H,3H)-dione] | 3.13 |  |  | 3.04 |  |
| Cc1cc(-c2cccc(Cl)c2-c2ccc3c(=O)n(-c4cncc5ccccc45)c(=O)[nH]c3c2)cn2ncnc12 [Example 102] |  |  | 16.1 |  | 15.7 |
| O=c1[nH]c2cc(-c3cccc4cccnc34)ccc2c(=O)n1-c1cncc2ccccc12 [Example 40] |  | 4910 |  |  | 1310 |
| COc1cc(-c2cc3c(s2)c(=O)n(-c2cncc4[nH]nc(C)c24)c(=O)n3CCC#N)c(Cl)cc1F [Example 768, 3-(6-(2-chloro-4-fluoro-5-methoxyphenyl)-3-(3-methyl-1H-pyrazolo[3,4-c]pyridin-4-yl)-2,4-dioxo-3,4-dihydrothieno[3,2-d]pyrimidin-1(2H)-yl)propanenitrile] | 5.26 |  | 7.16 |  |  |
| COc1ccc(Cl)c(-c2cc3[nH]c(=O)n(-c4cncc5sccc45)c(=O)c3s2)c1 [Example 607] | 4.52 |  | 4.34 |  |  |
| O=c1[nH]c2cc(-c3c(Cl)cccc3-c3ccnnc3)ccc2c(=O)n1-c1cncc2ccccc12 [Example 101, 7-(2-chloro-6-(pyridazin-4-yl)phenyl)-3-(isoquinolin-4-yl)quinazoline-2,4(1H,3H)-dione] |  | 73.8 |  |  | 13.7 |
| CCn1cc(-c2cccc(Cl)c2-c2ccc3c(=O)n(-c4cncc5ccccc45)c(=O)[nH]c3c2)c(C(F)(F)F)n1 [Example 281] |  |  | 39.5 |  | 71.8 |
| Cn1cnc(Cn2c(=O)n(-c3cncc4ccccc34)c(=O)c3sc(-c4ccccc4Cl)cc32)n1 [Example 153, 6-(2-chlorophenyl)-3-(4-isoquinolyl)-1-[(1-methyl-1,2,4-triazol-3-yl)methyl]thieno[3,2-d]pyrimidine-2,4-dione] |  |  | 66.1 |  | 18.5 |
| Cc1ncccc1-c1cc2[nH]c(=O)n(-c3cncc4ccccc34)c(=O)c2s1 [Example 23] |  |  | 800 |  | 258 |
| COc1cc(-c2cc3[nH]c(=O)n(-c4cncc5ccccc45)c(=O)c3s2)c(Cl)cc1F (single isomer, unassigned) [Example 557, 6-(2-chloro-4-fluoro-5-methoxyphenyl)-3-(isoquinolin-4-yl)thieno[3,2-d]pyrimidine-2,4(1H,3H)-dione] | 103 |  |  | 65.4 |  |

Source: US20240116946A1 (Gilead Sciences, Inc., priority 2022, published 2024)
